Laboratory results from patent US6440468B1, “Method for obtaining apolar and polar extracts of curcuma and applications thereof” (A.S.A.C. Pharmaceutical International, A.I.E., priority 1994, dated 2002).

Assay: Thermal stability of curcuminoids in the apolar fraction
Assay type: physicochemical
Conditions: stabilized as of 24-48 hours of exposure
Protocol: Initially, a greater degradation is produced which is stabilized as of 24-48 hours of exposure. Degradation is kept at 2% for temperatures lower than 50° C. and at 4% at 80° C.

COc1cc(/C=C/C(=O)CC(=O)/C=C/c2ccc(O)c(OC)c2)ccc1O [curcumin, curcumin (dipheruloylmethane)]
thermal degradation of curcuminoids (80° C): 4% | thermal degradation of curcuminoids (temperatures lower than 50° C): 2%
